Data from patent publication US20250115598A1 (Anaxis Pharma Pty Ltd, priority 2021, published 2025).

Tests used:
endogenous MLKL in U937 = endogenous MLKL in U937 (Homo sapiens (Human), UniProt Q8NB16); experiment: Degradation assay: endogenous MLKL in U937 (western blot); conditions: U937, 24 h incubation, read-out: Degradation of endogenous MLKL in U937 (DC50 cell-based assay)
Experimental: Degradation Assay: Screening Compounds Procedure to Evaluate the Activity of Compounds in Degrading Endogenous MLKL in Human and Mouse Cell
The mouse dermal fibroblast (MDF) cell line was seeded the day before the experiment in a 24-well plate at a cell density of […] per well in a volume of 0.5 mL per well and left to attach overnight. The human monocyte cell line (U937) was seeded on the day of the experiment in a 24-well plate at a cell density of […] per well in a volume of 0.5 mL per well.
The compound was diluted in DMSO with a starting concentration of 10 mM and titrated stepwise with a dilution of 1:5. 0.5 μL of the compound dilution was added to the appropriate well to achieve a final concentration of 10; 2; 0.4; 0.08 and 0.016 μM. A DMSO only well was included as control.
The cells were incubated for 24 h in the presence of the compound at 37° C. and 10% CO2.
After the 24 h incubation period, the medium was removed and cells washed with 0.5 mL PBS. The cells were then lysed directly in 60 μL of 1×SDS gel loading buffer.
The cell lysate was heat-denatured at […] for 10 min. 10 μL of lysate per well were run on 18-well 4-15% Criterion TGX stain free gels (BIO-RAD). The proteins were then transferred onto nitrocellulose membrane with a wet transfer protocol in the Criterion Blotter (BIO-RAD).
Membranes were blocked with 5% skim milk in TBST. Primary antibody against MLKL (clone 3H1, MABC604 Merck) was used at 1:2000 dilution in TBST with 1% BSA and left shaking over night at 4° C. After washes with TBST, the membranes were incubated with goat anti-rat IgG HRP-conjugated antibody (Southern Biotech) in 1% skim milk TBST at 1:10000 dilution for 1 h at room temperature. After TBST washes the bands were imaged on the ChemiDoc MP Imaging System (BIO-RAD) with Immobilion Western Chemiluminescent HRP Substrate Forte (Millipore). The loading control GAPDH was probed for with rabbit anti-GAPDH (CST 14C10) at 1:2000 dilution in 1% BSA TBST over night at 4° C. TBST washes were followed by incubation with goat anti-rabbit IgG HRP-conjugated antibody (Southern Biotech) in 1% skim milk TBST at 1:10000 dilution for 1 h at room temperature followed by TBST washes. The signal was detected as described above.
The band intensity was measured in the ImageLab Software (BIO-RAD) and the MLKL values adjusted for loading with GAPDH. The percentage of degradation was calculated by normalizing the compound treated values to the DMSO only control.

human MLKL (full length) = human MLKL (full length) (Homo sapiens (Human), UniProt Q8NB16); experiment: KINOMEscan binding assay, human MLKL (full length); conditions: hMLKL, Table 25; read-out: MLKL (KD)
In short: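 Tagged kinase + immobilized ligand beads + compound; eluted kinase quantified by qPCR. Kinase source: T7 phage lysate (BL21-derived E. coli, 32 °C) or HEK-293 with DNA tag. 11-pt 3-fold series, 1% DMSO, top 30,000 nM (most). Hill fit, slope −1 → Kd.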

endogenous MLKL in MDF = endogenous MLKL in MDF (Mus musculus (Mouse), UniProt Q9D2Y4); experiment: Degradation assay: endogenous MLKL in MDF (western blot); conditions: MDF cells, 24 h incubation with compound, MLKL adjusted for loading with GAPDH, normalized to DMSO only control, read-out: Degradation of endogenous MLKL in MDF (DC50 cell-based assay)
In short: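 Western blot band intensity of MLKL, adjusted to GAPDH loading and normalized to DMSO-only wells, gave percent degradation. Compound exposure lasted 24 h at final concentrations of 10–0.016 μM in 1:5 steps, in mouse dermal fibroblasts or human U937 cells.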

[1] = test system: Immortalised Mouse Dermal Fibroblasts (MDFs); experiment: Cellular assay: inhibition of TSI induced necroptosis, CellTitre-Glo viability; conditions: Mus musculus, Fibroblast; MDF, 3 hours TSI cocktail, Table 27; read-out: Inhibition of TSI-induced necroptosis (IC50 cell-based assay) in MDF
In short: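 Necroptosis induced for 3 h with TSI: rhTNF 100 ng/ml, Smac mimetic 500 nM, caspase inhibitor IDN-6556 10 μM. Mouse dermal fibroblasts had received compound (36 μM top, ten three-fold steps) 30 min beforehand. ATP-based viability scaled between untreated and TSI-only wells; IC50 taken as 4-parameter curve inflection.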

endogenous MLKL in U937, sequence (Q8NB16 whole entry): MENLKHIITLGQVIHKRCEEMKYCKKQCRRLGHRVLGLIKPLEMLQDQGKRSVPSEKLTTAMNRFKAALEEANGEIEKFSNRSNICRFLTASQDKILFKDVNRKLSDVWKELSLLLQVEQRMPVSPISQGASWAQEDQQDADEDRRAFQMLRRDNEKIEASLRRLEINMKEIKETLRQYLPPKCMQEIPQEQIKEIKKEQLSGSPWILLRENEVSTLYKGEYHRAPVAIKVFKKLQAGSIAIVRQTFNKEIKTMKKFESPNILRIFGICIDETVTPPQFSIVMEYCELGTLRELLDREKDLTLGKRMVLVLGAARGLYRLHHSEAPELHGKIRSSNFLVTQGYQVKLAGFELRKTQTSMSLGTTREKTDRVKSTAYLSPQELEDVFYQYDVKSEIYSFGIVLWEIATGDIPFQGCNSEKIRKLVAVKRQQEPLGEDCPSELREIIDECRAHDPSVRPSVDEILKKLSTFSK
human MLKL (full length), sequence (Q8NB16 whole entry): as above
endogenous MLKL in MDF, sequence (Q9D2Y4 whole entry): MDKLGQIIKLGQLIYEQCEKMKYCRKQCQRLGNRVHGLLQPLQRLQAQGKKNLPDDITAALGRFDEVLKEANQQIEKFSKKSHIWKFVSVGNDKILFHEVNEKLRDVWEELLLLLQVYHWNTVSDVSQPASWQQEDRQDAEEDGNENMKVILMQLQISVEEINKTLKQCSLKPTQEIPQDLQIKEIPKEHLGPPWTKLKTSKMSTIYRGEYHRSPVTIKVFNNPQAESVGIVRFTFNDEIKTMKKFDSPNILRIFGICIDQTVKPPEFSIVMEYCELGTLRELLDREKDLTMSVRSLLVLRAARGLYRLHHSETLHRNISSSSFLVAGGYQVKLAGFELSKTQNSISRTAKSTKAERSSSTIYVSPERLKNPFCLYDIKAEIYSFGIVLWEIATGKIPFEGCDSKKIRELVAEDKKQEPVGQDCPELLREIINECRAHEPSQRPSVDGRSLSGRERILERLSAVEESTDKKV

SMILES | DC50 (endogenous MLKL in U937) [nM] | Kd (human MLKL (full length)) [nM] | DC50 (endogenous MLKL in MDF) [nM] | IC50 [1] [nM]
Cc1ncsc1-c1ccc(CNC(=O)[C@@H]2C[C@@H](O)CN2C(=O)[C@@H](NC(=O)C2(F)CC2)C(C)(C)C)c(OCCCCCCCCCn2cc(-c3cnc(N)c4c(-c5ccc(NS(=O)(=O)C(F)F)c(O[C@@H](C)c6ccc(F)cc6)c5)nn(C)c34)cn2)c1 [Compound 1041, (2S,4R)-N-[(2-{[9-(4-{4-amino-3-[4-(difluoromethanesulfonamido)-3-[(1S)-1-(4-fluorophenyl)ethoxy]phenyl]-1-methyl-1H-pyrazolo[4,3-c]pyridin-7-yl}-1H-pyrazol-1-yl)nonyl]oxy}-4-(4-methyl-1,3-thiazol-5-yl)phenyl)methyl]-1-[(2S)-2-[(1-fluorocyclopropyl)formamido]-3,3-dimethylbutanoyl]-4-hydroxypyrrolidine-2-carboxamide] | 1000 to 10000 | 10 to 1000 | < 1000 | –
Cc1ncsc1-c1ccc(CNC(=O)[C@@H]2C[C@@H](O)CN2C(=O)[C@@H](NC(=O)CCCCCOc2ccc(-c3cnc(N)c4c(-c5ccc(NS(=O)(=O)C(F)F)c(O[C@@H](C)c6ccc(F)cc6)c5)nn(C)c34)cn2)C(C)(C)C)cc1 [Compound 1050, (2S,4R)-1-[(2S)-2-{6-[(5-{4-amino-3-[4-(difluoromethanesulfonamido)-3-[(1S)-1-(4-fluorophenyl)ethoxy]phenyl]-1-methyl-1H-pyrazolo[4,3-c]pyridin-7-yl}pyridin-2-yl)oxy]hexanamido}-3,3-dimethylbutanoyl]-4-hydroxy-N-{[4-(4-methyl-1,3-thiazol-5-yl)phenyl]methyl}pyrrolidine-2-carboxamide] | < 1000 | 10 to 1000 | 1000 to 10000 | –
C[C@H](Oc1cc(-c2nn(C)c3c(-c4cnn(C5CCN(C(=O)C6CCCN(c7cccc8c7C(=O)N(C7CCC(=O)NC7=O)C8=O)C6)CC5)c4)cnc(N)c23)ccc1NS(=O)(=O)C(F)F)c1ccc(F)cc1 (stereo partly drawn) [Compound 1077, N-(4-{4-amino-7-[1-(1-{1-[2-(2,6-dioxopiperidin-3-yl)-1,3-dioxo-2,3-dihydro-1H-isoindol-4-yl]piperidine-3-carbonyl}piperidin-4-yl)-1H-pyrazol-4-yl]-1-methyl-1H-pyrazolo[4,3-c]pyridin-3-yl}-2-[(1S)-1-(4-fluorophenyl)ethoxy]phenyl)-1,1-difluoromethane-sulfonamide] | 1000 to 10000 | – | – | 1000 to 10000
Cn1nc(-c2ccc(NS(=O)(=O)C(F)F)c(F)c2)c2c(N)ncc(-c3cnn(C4CCN(C(=O)[C@H]5C[C@H](Nc6cccc7c6C(=O)N(C6CCC(=O)NC6=O)C7=O)C5)CC4)c3)c21 (stereo partly drawn) [Compound 1114, N-{4-[4-amino-1-methyl-7-(1-{1-[(trans)-3-{[2-(2,6-dioxopiperidin-3-yl)-1,3-dioxo-2,3-dihydro-1H-isoindol-4-yl]amino}cyclobutanecarbonyl]piperidin-4-yl}-1H-pyrazol-4-yl)-1H-pyrazolo[4,3-c]pyridin-3-yl]-2-fluorophenyl}-1,1-difluoromethanesulfonamide] | < 1000 | < 10 | < 1000 | –
CN[C@@H](C)C(=O)N[C@H](C(=O)N1C[C@H](NC(=O)CCCCCCn2cc(-c3cnc(N)c4c(-c5ccc(NS(=O)(=O)C(F)F)c(O[C@@H](C)c6ccc(F)cc6)c5)nn(C)c34)cn2)C[C@H]1C(=O)Nc1c(F)cccc1F)C(C)(C)C [Compound 1101, (2S)-4-[7-(4-{4-amino-3-[4-(difluoromethanesulfonamido)-3-[(1S)-1-(4-fluorophenyl)ethoxy]phenyl]-1-methyl-1H-pyrazolo[4,3-c]pyridin-7-yl}-1H-pyrazol-1-yl)heptanamido]-N-(2,6-difluorophenyl)-1-[(2S)-3,3-dimethyl-2-[(2S)-2-(methylamino)propanamido]butanoyl]pyrrolidine-2-carboxamide] | < 1000 | < 10 | – | –
